Earlier results, collected in patent US8709996B2, “Pharmaceutical treatment process using chitosan or derivative thereof” (Archimedes Development Limited, priority 2003, dated 2014).

Conditions: pig, in vivo

| Substance | bioavailability of octreotide compared to a solution of octreotide alone |
| --- | --- |
| chitosan hydrochloride | substantial increases in bioavailability |
| trimethyl chitosan chloride | substantial increases in bioavailability |
